Test results as given in patent publication US12404262B2 (priority 2021, dated 2025).

Conditions: 1.0% DMSO, 24-hour incubation at ambient temperature, maximum theoretical 100 μM; for pH 2 solubility: 0.1N HCl, first value of the cell; for pH 7 solubility: 1×PBS buffer (pH 7.4), second value of the cell

| Structure (SMILES) | pH 2 solubility | pH 7 solubility |
| --- | --- | --- |
| CN(C(=O)N(c1nn(CC(F)(F)F)c2c(-c3ccc(C#CC(C)(C)S(C)(=O)=O)nc3[C@H](Cc3cc(F)cc(F)c3)NC(=O)Cn3nc(C(F)(F)F)c4c3C(F)(F)[C@@H]3C[C@H]43)ccc(Cl)c12)S(C)(=O)=O)[C@@H](CC(=O)O)C(=O)O [Compound 71, N-((4-chloro-7-(2-((S)-1-(2-((3bS,4aR)-5,5-difluoro-3-(trifluoromethyl)-3b,4,4a,5-tetrahydro-1H-cyclopropa[3,4]cyclopenta[1,2-c]pyrazol-1-yl)acetamido)-2-(3,5-difluorophenyl)ethyl)-6-(3-methyl-3-(methylsulfonyl)but-1-yn-1-yl)pyridin-3-yl)-1-(2,2,2-trifluoroethyl)-1H-indazol-3-yl)(methylsulfonyl)carbamoyl)-N-methyl-L-aspartic acid] | 1 μM | 15 μM |
| CC(C)(C#Cc1ccc(-c2ccc(Cl)c3c(N(C(=O)NCC(=O)O)S(C)(=O)=O)nn(CC(F)(F)F)c23)c([C@H](Cc2cc(F)cc(F)c2)NC(=O)Cn2nc(C(F)(F)F)c3c2C(F)(F)[C@@H]2C[C@H]32)n1)S(C)(=O)=O [Compound 72, ((4-chloro-7-(2-((S)-1-(2-((3bS,4aR)-5,5-difluoro-3-(trifluoromethyl)-3b,4,4a,5-tetrahydro-1H-cyclopropa[3,4]cyclopenta[1,2-c]pyrazol-1-yl)acetamido)-2-(3,5-difluorophenyl)ethyl)-6-(3-methyl-3-(methylsulfonyl)but-1-yn-1-yl)pyridin-3-yl)-1-(2,2,2-trifluoroethyl)-1H-indazol-3-yl)(methylsulfonyl)carbamoyl)glycine] | 1 μM | 9 μM |
| CC(C)(C#Cc1ccc(-c2ccc(Cl)c3c(N(C(=O)NCCN4CCNCC4)S(C)(=O)=O)nn(CC(F)(F)F)c23)c([C@H](Cc2cc(F)cc(F)c2)NC(=O)Cn2nc(C(F)(F)F)c3c2C(F)(F)[C@@H]2C[C@H]32)n1)S(C)(=O)=O [Compound 73, N—((S)-1-(3-(4-chloro-3-(N-((2-(piperazin-1-yl)ethyl)carbamoyl)methylsulfonamido)-1-(2,2,2-trifluoroethyl)-1H-indazol-7-yl)-6-(3-methyl-3-(methylsulfonyl)but-1-yn-1-yl)pyridin-2-yl)-2-(3,5-difluorophenyl)ethyl)-2-((3bS,4aR)-5,5-difluoro-3-(trifluoromethyl)-3b,4,4a,5-tetrahydro-1H-cyclopropa[3,4]cyclopenta[1,2-c]pyrazol-1-yl)acetamide] | 72 μM | 16 μM |
| CC(C)(C#Cc1ccc(-c2ccc(Cl)c3c(N(C(=O)NCCN4CCN(C(=N)N)CC4)S(C)(=O)=O)nn(CC(F)(F)F)c23)c([C@H](Cc2cc(F)cc(F)c2)NC(=O)Cn2nc(C(F)(F)F)c3c2C(F)(F)[C@@H]2C[C@H]32)n1)S(C)(=O)=O [Compound 74, N—((S)-1-(3-(3-(N-((2-(4-carbamimidoylpiperazin-1-yl)ethyl)carbamoyl)methylsulfonamido)-4-chloro-1-(2,2,2-trifluoroethyl)-1H-indazol-7-yl)-6-(3-methyl-3-(methylsulfonyl)but-1-yn-1-yl)pyridin-2-yl)-2-(3,5-difluorophenyl)ethyl)-2-((3bS,4aR)-5,5-difluoro-3-(trifluoromethyl)-3b,4,4a,5-tetrahydro-1H-cyclopropa[3,4]cyclopenta[1,2-c]pyrazol-1-yl)acetamide] | 72 μM | 24 μM |
| CN(CCNC(=N)N)C(=O)N(c1nn(CC(F)(F)F)c2c(-c3ccc(C#CC(C)(C)S(C)(=O)=O)nc3[C@H](Cc3cc(F)cc(F)c3)NC(=O)Cn3nc(C(F)(F)F)c4c3C(F)(F)[C@@H]3C[C@H]43)ccc(Cl)c12)S(C)(=O)=O [Compound 75, N—((S)-1-(3-(4-chloro-3-(N-((2-guanidinoethyl)(methyl)carbamoyl)methylsulfonamido)-1-(2,2,2-trifluoroethyl)-1H-indazol-7-yl)-6-(3-methyl-3-(methylsulfonyl)but-1-yn-1-yl)pyridin-2-yl)-2-(3,5-difluorophenyl)ethyl)-2-((3bS,4aR)-5,5-difluoro-3-(trifluoromethyl)-3b,4,4a,5-tetrahydro-1H-cyclopropa[3,4]cyclopenta[1,2-c]pyrazol-1-yl)acetamide] | 16 μM | 13 μM |
| CC(C)(C#Cc1ccc(-c2ccc(Cl)c3c(N(C(=O)NCCNC(=O)C(=O)O)S(C)(=O)=O)nn(CC(F)(F)F)c23)c([C@H](Cc2cc(F)cc(F)c2)NC(=O)Cn2nc(C(F)(F)F)c3c2C(F)(F)[C@@H]2C[C@H]32)n1)S(C)(=O)=O [Compound 77, 2-((2-(3-(4-chloro-7-(2-((S)-1-(2-((3bS,4aR)-5,5-difluoro-3-(trifluoromethyl)-3b,4,4a,5-tetrahydro-1H-cyclopropa[3,4]cyclopenta[1,2-c]pyrazol-1-yl)acetamido)-2-(3,5-difluorophenyl)ethyl)-6-(3-methyl-3-(methylsulfonyl)but-1-yn-1-yl)pyridin-3-yl)-1-(2,2,2-trifluoroethyl)-1H-indazol-3-yl)-3-(methylsulfonyl)ureido)ethyl)amino)-2-oxoacetic acid] | 21 μM | 1 μM |
| CC(C)(C#Cc1ccc(-c2ccc(Cl)c3c(N(C(=O)N(CC(=O)O)CC(=O)O)S(C)(=O)=O)nn(CC(F)(F)F)c23)c([C@H](Cc2cc(F)cc(F)c2)NC(=O)Cn2nc(C(F)(F)F)c3c2C(F)(F)[C@@H]2C[C@H]32)n1)S(C)(=O)=O [Compound 78, 2,2′-(((4-chloro-7-(2-((S)-1-(2-((3bS,4aR)-5,5-difluoro-3-(trifluoromethyl)-3b,4,4a,5-tetrahydro-1H-cyclopropa[3,4]cyclopenta[1,2-c]pyrazol-1-yl)acetamido)-2-(3,5-difluorophenyl)ethyl)-6-(3-methyl-3-(methylsulfonyl)but-1-yn-1-yl)pyridin-3-yl)-1-(2,2,2-trifluoroethyl)-1H-indazol-3-yl)(methylsulfonyl)carbamoyl)azanediyl)diacetic acid] | 14 μM | 22 μM |
| CN(CCCN)C(=O)N(c1nn(CC(F)(F)F)c2c(-c3ccc(C#CC(C)(C)S(C)(=O)=O)nc3[C@H](Cc3cc(F)cc(F)c3)NC(=O)Cn3nc(C(F)(F)F)c4c3C(F)(F)[C@@H]3C[C@H]43)ccc(Cl)c12)S(C)(=O)=O [Compound 79, N—((S)-1-(3-(3-(N-((3-aminopropyl)(methyl)carbamoyl)methylsulfonamido)-4-chloro-1-(2,2,2-trifluoroethyl)-1H-indazol-7-yl)-6-(3-methyl-3-(methylsulfonyl)but-1-yn-1-yl)pyridin-2-yl)-2-(3,5-difluorophenyl)ethyl)-2-((3bS,4aR)-5,5-difluoro-3-(trifluoromethyl)-3b,4,4a,5-tetrahydro-1H-cyclopropa[3,4]cyclopenta[1,2-c]pyrazol-1-yl)acetamide] | 59 μM | 14 μM |
| CN(C(=O)N(c1nn(CC(F)(F)F)c2c(-c3ccc(C#CC(C)(C)S(C)(=O)=O)nc3[C@H](Cc3cc(F)cc(F)c3)NC(=O)Cn3nc(C(F)(F)F)c4c3C(F)(F)[C@@H]3C[C@H]43)ccc(Cl)c12)S(C)(=O)=O)C(C)(C)C(=O)OCOP(=O)(O)O [Compound 85, (phosphonooxy)methyl 2-(3-(4-chloro-7-(2-((S)-1-(2-((3bS,4aR)-5,5-difluoro-3-(trifluoromethyl)-3b,4,4a,5-tetrahydro-1H-cyclopropa[3,4]cyclopenta[1,2-c]pyrazol-1-yl)acetamido)-2-(3,5-difluorophenyl)ethyl)-6-(3-methyl-3-(methylsulfonyl)but-1-yn-1-yl)pyridin-3-yl)-1-(2,2,2-trifluoroethyl)-1H-indazol-3-yl)-1-methyl-3-(methylsulfonyl)ureido)-2-methylpropanoate] | 5 μM | 65 μM |
| COC(=O)N(c1nn(CC(F)(F)F)c2c(-c3ccc(C#CC(C)(C)S(C)(=O)=O)nc3[C@H](Cc3cc(F)cc(F)c3)NC(=O)Cn3nc(C(F)(F)F)c4c3C(F)(F)[C@@H]3C[C@H]43)ccc(Cl)c12)S(C)(=O)=O [Compound 89, methyl (4-chloro-7-(2-((S)-1-(2-((3bS,4aR)-5,5-difluoro-3-(trifluoromethyl)-3b,4,4a,5-tetrahydro-1H-cyclopropa[3,4]cyclopenta[1,2-c]pyrazol-1-yl)acetamido)-2-(3,5-difluorophenyl)ethyl)-6-(3-methyl-3-(methylsulfonyl)but-1-yn-1-yl)pyridin-3-yl)-1-(2,2,2-trifluoroethyl)-1H-indazol-3-yl)(methylsulfonyl)carbamate] | 3/3 μM | 3/3 μM |
| CC(C)(C#Cc1ccc(-c2ccc(Cl)c3c(N(C(=O)OCOC(=O)/C=C/C(=O)O)S(C)(=O)=O)nn(CC(F)(F)F)c23)c([C@H](Cc2cc(F)cc(F)c2)NC(=O)Cn2nc(C(F)(F)F)c3c2C(F)(F)[C@@H]2C[C@H]32)n1)S(C)(=O)=O [Compound 93, (E)-4-((((4-chloro-7-(2-((S)-1-(2-((3bS,4aR)-5,5-difluoro-3-(trifluoromethyl)-3b,4,4a,5-tetrahydro-1H-cyclopropa[3,4]cyclopenta[1,2-c]pyrazol-1-yl)acetamido)-2-(3,5-difluorophenyl)ethyl)-6-(3-methyl-3-(methylsulfonyl)but-1-yn-1-yl)pyridin-3-yl)-1-(2,2,2-trifluoroethyl)-1H-indazol-3-yl)(methylsulfonyl)carbamoyl)oxy)methoxy)-4-oxobut-2-enoic acid] | 1 μM | 22 μM |
| C[C@H](O)[C@H](C)OC(=O)N(c1nn(CC(F)(F)F)c2c(-c3ccc(C#CC(C)(C)S(C)(=O)=O)nc3[C@H](Cc3cc(F)cc(F)c3)NC(=O)Cn3nc(C(F)(F)F)c4c3C(F)(F)[C@@H]3C[C@H]43)ccc(Cl)c12)S(C)(=O)=O [Compound 95, (2S,3S)-3-hydroxybutan-2-yl (4-chloro-7-(2-((S)-1-(2-((3bS,4aR)-5,5-difluoro-3-(trifluoromethyl)-3b,4,4a,5-tetrahydro-1H-cyclopropa[3,4]cyclopenta[1,2-c]pyrazol-1-yl)acetamido)-2-(3,5-difluorophenyl)ethyl)-6-(3-methyl-3-(methylsulfonyl)but-1-yn-1-yl)pyridin-3-yl)-1-(2,2,2-trifluoroethyl)-1H-indazol-3-yl)(methylsulfonyl)carbamate] | 1 μM | 3 μM |
